Assays:
[1] = tested on: rats induced with Type I diabetes; test: Type I diabetes in rats induced with streptozotocin; glucose and insulin levels; type: in vivo, Male Sprague-Dawley rats; settings: compared to diabetic group, Insulin 1 unit and 3 unit, P-5-P 25 mg/kg daily; for plasma glucose levels: FIG. 1; for plasma insulin levels: FIG. 2
Experimental: Male Sprague-Dawley (Charles River Laboratories, Montreal, Canada) rats weighing approximately 200 g are randomly separated into control and experimental groups. All experimental animals are given an intravenous injection of 0.1 M citrate buffered streptozotocin (pH 4.5) at a dosage of 65 mg/kg of body weight to induce diabetes mellitus. All control animals receive an intravenous injection of 0.1 M citrate buffer (pH 4.5) alone. One experimental group of rats also receives daily doses of pyridoxal-5′-phosphate (25 mg/kg body weight) (Aldrich Canada Ltd., Ontario, Canada). A second experimental group receives daily subcutanteous injections of Humulin® N (3 units per day) (insulin isophene, human biosynthetic; Eli Lilly and Co., Indianapolis, Ind.). A third experimental group receives both daily subcutaneous injections of Humulin® N (3 units per day) and a daily dose of pyridoxal-5′-phosphate (25 mg/kg body weight). […] […] All animals are fed rat chow and water ad libitum. Plasma glucose levels were done using the Infinity Glucose Reagent® (Sigma Diagnostics, St. Louis, Mo.).

[2] = tested on: rats induced with Type II diabetes; test: Type II diabetes in rats induced by sucrose feeding; plasma glucose, plasma insulin, systolic blood pressure; type: in vivo, Male Sprague-Dawley rats; settings: P-5-P 25 mg/kg orally/day; for plasma glucose levels: FIG. 3; for plasma glucose levels / plasma insulin levels: compared to diabetic group, tolbutamide 40 and 20 mg/kg, 16 weeks; for plasma insulin levels: FIG. 4
Experimental: To determine the effect of a compound suitable for use in methods of the invention on glucose and insulin levels, as well as increases in systolic blood pressure, rats having type II diabetes are administered pyridoxal-5'-phosphate, either alone or in combination with sucrose and/or tolbutamide, and their systolic blood pressure, urine and blood glucose and insulin levels are determined. […] et al: Isr J Med Sci; 33:153-159. […] et al: Isr J Med Sci; 33:153-159, a high sucrose or fructose diet for a prolonged period is one technique used to induce Type II diabetes, specifically hypertension associated with hyperglycemia and hyperinsulinemia in animals. Male Sprague-Dawley (Charles River Laboratories, Montreal, Canada) rats weighing approximately 200 g are randomly separated into the following groups with each group having 5 amimals: a) The control group that was fed a normal diet and provided with drinking water b) The sucrose group that was fed 35% sucrose (35 gm sucrose/100 ml of drinking water/day) with an average intake of 150 ml/rat/day c) The sucrose+[…] group that was fed sucrose as stated in b above and 25 mg/kg orally/day of […] g) The sucrose+tolbutamide group that was fed sucrose as stated in b above and 20 mg/kg orally/day of tolbutamide. Total duration of the study was 16 weeks. Plasma insulin levels were measured using Rat Insulin RIA Kit (Linco Research Inc., St. Charles, Mo.). Plasma glucose levels were done using the Infinity Glucose Reagent® (Sigma Diagnostics, St. Louis, Mo.).

| Molecule | plasma glucose levels [1] | plasma insulin levels [1] | plasma glucose levels [2] | plasma insulin levels [2] | rise in systolic blood pressure ([2]; FIG. 5, tail cuff, compared to diabetic and tolbutamide treatment groups) |
| --- | --- | --- | --- | --- | --- |
| Insulin: Humulin® N (insulin isophene, human biosynthetic; Eli Lilly and Co.) | significantly reduced | significantly increased | – | – | – |
| CCCCNC(=O)NS(=O)(=O)c1ccc(C)cc1 [tolbutamide, reference compound] | – | – | significantly decreased | significantly decreased | – |
| Cc1ncc(COP(=O)(O)O)c(C=O)c1O [Example P-5-P, pyridoxal-5′-phosphate] | significantly reduced | significantly increased | significantly decreased | significantly decreased | significantly decreased |
